We go through one compound from patent US10292991B2, “Small molecule therapeutic compounds that reduce the incidence of intracerebral hemorrhage and brain microhemorrhages” (St. Michaels Hospital, priority 2016, dated 2019).

Series [1] relates to brain hemorrhage induced by 1 μM atorvastatin in zebrafish. Put plainly: Atorvastatin-induced brain hemorrhage (ICH) model in zebrafish, rescue by drugs. The note with it: for EC50: Danio rerio.
Experimental: Zebrafish were set up the night before the experiment day. In the morning of the experimental day, we put breeders together for mating and fertilization. 6 hours post-fertilization (hpf), statins was added into a 96-well plate holding 100 μl water with 7 to 8 fish eggs in each well, which was optimized through a serial pilot experiments. Statins were dissolved in DMSO and diluted with 0.5% of DMSO water into a working solution. 100 μl water containing 0.5% of DMSO was the medium for all wells in the final assessment.
For screening NIH compound libraries, 5 μM of each of the drugs from the library was added at 24 hpf into wells containing fish eggs treated with 1 μM ATV since 6 hpf. Hemorrhage positive control wells were treated with ATV but not treated with any drugs. Negative controls were not treated with any chemicals (fish with 0.5% of DMSO water). Geranylgeranyl pyrophosphate (GGPP, 4 mg/L) was used as positive rescue control.
Brain hemorrhage was assessed 72 hpf (66 hours after addition of statins) using stereomicroscopy by two observers. Percentage of brain hemorrhage was used as final readout. Compounds showing more than 70% of rescue of the brain hemorrhages in the initial test were re-tested to generate a final list of hits from the library.
All subsequent EC50 assays of positive compounds were performed with protocols established and optimized during the screening.
Series [2] deals with CCM3 (Ccm3) mRNA. Put plainly: qRT-PCR of CCM3 mRNA in atorvastatin-treated zebrafish larvae. The class given is in vivo, zebrafish (Danio rerio). The note with it: 1 μmol/L atorvastatin plus 500 nmol/L drug, n=3. How it is done:
qRT-PCR was used to assess relative expression of selected genes (an average of two biological trial and three technical replicates and each trial is a pool of 60 larvae/treatment), using β-actin as the housekeeping gene control. 3 dpf, Tg(Flk:GFP; Gata:dsRed) zebrafish larvae were used for RNA extraction and cDNA synthesis. Atorvastatin and drug treatment were performed as previously mentioned in drug screening. Total RNA was extracted from these larvae (a pool of 50-60 larvae/treatment) using the RNeasy extraction kit (Qiagen, Mississauga, ON, CAN) and treated with DNase. The concentration of total RNA was determined spectrophotometrically at 260/280 nm using a NanoDrop™ spectrophotometer. First-strand cDNA was synthesized from 1 μg of total RNA using random hexamer primers.
In each case, forward primer is shown on the top and reverse primer on the bottom.
PCR was carried out in a 20 μl total volume and included 1×PCR buffer, 1.25 mM MgCl2, 0.25 mM dNTP, 1 U Taq polymerase, 0.5 μmol/L forward, and reverse primers and 1 μl cDNA.
(Real-time PCR tracks product formation cycle by cycle.)

For series [3], the system named is Pak2a - exon8 morpholino-induced hemorrhage in zebrafish. Kind of series: Pak2a morpholino-induced hemorrhage in zebrafish, rescue by drugs. The class given is in vivo, zebrafish (Danio rerio). The note with it: Danio rerio; Table 6. How it is done: (§1) Danieau buffer (58 mM NaCl, 0.7 mM KCl, 0.4 mM MgSO4, 0.6 mM Ca(NO3)2, 5.0 mM HEPES, pH 7.6) was used to dilute the MO solutions to 0.2 mM final concentration. Individual wells were placed on a 1.0% agarose plate, in which the embryos were positioned. Afterwards, the MO solution was injected through the cell yolk into embryos of 1 to 4 cell-stage. The injected quantities varied from 0.5 to 15 ng.
Another MO was designed to block the splice-donor sites after exon 8 in pak2a. Pak2a is the gene mutated in the rhdmi149 zebrafish mutant that develops ICH/BMH.
Efficacy assays were performed using Artemether (ARM, Sigma) and artemesunate (ART, GMP).

Series [4] relates to Cdh5 - exon2 morpholino-induced hemorrhage in zebrafish. Put plainly: Cdh5 (VE-cadherin) morpholino-induced hemorrhage in zebrafish, rescue by drugs. In kind it is in vivo, zebrafish (Danio rerio). Conditions: result in words, no EC50. As for the experimental part:
as §1
Panels A & B: Stable EC junctions are maintained by a Cdc42-dependent and VE-cadherin-mediated cell-cell adhesion. VE cadherins are found on the surfaces of EC cell-cell junctions. VE-cadherins are associated with β- and α-catenins at their cytoplasmic domains, which connect them to the actin-based cytoskeleton (blue circles). Cdc42 belongs to the Rho-family of small guanosine triphosphatases (GTPases), which are the main regulators of VE-cadherin-based cell-cell adhesion. The functions of hmgcrb, βPix, and pak2a in regulating junctional stability in zebrafish are shown. HNGCR mediated GGPP biosynthesis regulates Cdc42 prenylation. βPix is a GEF that increases CDC42 affinity for GTP. Pak2 is an effector of Cdc42, which regulates actin filament organization.
Suppression of VE-cadherin induces hemorrhage.

Series [5] has as its system zebrafish larvae. Put plainly: Toxicity assay in zebrafish larvae (heart beat, blood flow, cardiac edema). In kind it is in vivo, zebrafish (Danio rerio). How it is done:
The embryos were collected and distributed into a 96-well plate in 0.5% DMSO, similar to efficacy assays. […] Heart beat and blood flow were ranked from 3 (normal heart beat or blood flow) to 0 (no heart beat or blood flow). Cardiac edema was ranked from 0 (normal heart without edema) to −3 (severe cardiac edema). […] The ratio of TC50/EC50 was calculated in each case.
Heart beat and blood flow were ranked from 3 (normal heart beat or blood flow) to 0 (no heart beat or blood flow). Cardiac edema was ranked from 0 (normal heart without edema) to −3 (severe cardiac edema). […] Data is expressed as mean±SEM from 3 experiments.

Series [6] has as its system zebrafish embryos treated with LPS. Put plainly: LPS-induced ICH/BMH and mortality in zebrafish embryos. Conditions: 1 μmol/L in fish water; LPS 200 mg/mL; preliminary data. In kind it is in vivo. How it is done:
Experiment 1: LPS-induced ICH/BMH in zebrafish embryos. The lead compounds will be tested in a LPS model of ICH/BMH to determine if rescue of the ICH/BMH phenotype is a general property of these compounds or it is specific to statin-induced ICH/BMH. […] LPS concentration used was 200 mg/mL. […] Experiments are ongoing to define the rescuing effects of artemether on LPS-induced brain hemorrhage. Double transgenic zebrafish (Gata1:DsRed/Flk1:GFP) with green fluorescent vessel and red fluorescent red blood cells are used. Arrow points to hemorrhage.

The mark [7] stands for this setting: drug from Sequoia Research (UK).
The mark [8] stands for this setting: drug from Sigma, 3 dpf larvae, drug added 24 hpf.

Like-named read-outs stand apart in the source and are kept apart here.

As to `CO[C@H]1O[C@@H]2O[C@@]3(C)CC[C@H]4[C@H](C)CC[C@@H]([C@H]1C)[C@@]24OO3` [Artemether], the “Hemorrhage in zebrafish treated with 1 μmol/L atorvastatin and drug” value in series [1] (500 nmol/L drug, 3 dpf) is recorded as “no hemorrhage was observed”. Besides, the “Efficacy on atorvastatin Hemorrhage” value in series [1] (ATV model induced by 1 μmol/L atorvastatin, inhibition of hemorrhage) is on record as “+++++ (One + sign represents 20% inhibition on 1 μmol/L ATV or β-Pix MO-induced hemorrhage.)”. The EC50 in series [1] (read-out: EC50 (in nmol/L) on atorfvastatin model (μmol/L)) came out at 64 nmol/L. In addition, in series [1] (read-out: EC50 to rescue brain hemorrhage, Statin Model), the EC50 came to 24.7 nmol/L. For the same compound, the “CCM3 transcription level (qRT-PCR)” value in series [2] is recorded as “returned to normal”. For the same compound, the EC50 in series [3] is 39.1 ± 8 nM. For the same compound, the “Rescue of hemorrhage induced by Cdh5 - exon2 morpholino” value in series [4] (listed as ARM) is “rescue was observed”. Besides, the “Rescue of hemorrhage induced by Cdh5 - exon2 morpholino” value in series [4] (listed as ARM (Sigma)) is listed as “Rescue effect”. Besides, in series [5] (setting [7]), the “TC50 (Blood flow)” value came out at 746.3 nmol/L, the “TC50/EC50 ratio (Blood flow)” value was “(9.2)”, the “TC50/EC50 ratio (Edema)” value is “(6.5e+010)” and the “TC50/EC50 ratio (Heart beat)” value is “(1.3e+011)”. In addition, in series [5] (drug from Sigma), the “TC50/EC50 ratio (Blood flow)” value is on record as “(39.5)”, the “TC50/EC50 ratio (Edema)” value is given as “(87.1)” and the “TC50/EC50 ratio (Heart beat)” value is “(94.3)”. In series [5] (setting [8]), the “TC50 (Blood flow)” value was 975.3 nmol/L, the “TC50 (Edema)” value turned out to be 19.564 µM and the “TC50 (Heart beat)” value turned out to be 2328 nmol/L. In addition, the “Safety in zebrafish embryos (EC50 compared with TC50)” value in series [5] (result in words) is “EC50 is much lower than TC50”. Further, the “Effect on fish survival (LPS-induced mortality)” value in series [6] was “protective effect”.
